Experimental findings from ChEMBL document CHEMBL1138976, “Anti-HIV activity of stilbene-related heterocyclic compounds” (Bioorg Med Chem Lett, 2006) are described below.

Calls of active or inactive are those of the source. The calls are words filed in the database; no cut-off is given here. A value given as a limit tells only on which side of the number the result lay.

Data set [1] concerns Human immunodeficiency virus. Briefly: Ratio of cytotoxic activity to anti HIV activity. The class given is functional.
Data set [2] addresses T1, Protein Tat (Human immunodeficiency virus type 1 group M subtype B (isolate PCV12)(HIV-1)) (UniProt P04326).
T1 sequence (whole entry): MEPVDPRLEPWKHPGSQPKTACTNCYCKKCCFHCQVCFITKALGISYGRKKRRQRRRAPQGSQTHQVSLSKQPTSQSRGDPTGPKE
Briefly: Inhibition of Tat activity in HeLa cells transfected with Tat-Luc at 100 uM. The data set is classed as functional, cell-based.

Data set [3] can be described thus: Cytotoxicity by Propidium Iodide staining.
Data set [4] concerns Human immunodeficiency virus. Briefly: Specificity against NF-kappaB and Tat proteins assessed by activity in Hela Tet-ON assay. The class given is functional.
In data set [5] the target is Nuclear factor NF-kappa-B complex (Homo sapiens) (UniProt Q00653+P19838+Q04206). Briefly: Inhibition of TNFalpha activated NF-kappaB mediated transactivation of HIV-1 LTR Luc in 5.1 cells at 100 uM. The class given is functional, cell-based.
Sequence of Nuclear factor NF-kappa-B complex (Homo sapiens) (P19838 whole entry, looked up): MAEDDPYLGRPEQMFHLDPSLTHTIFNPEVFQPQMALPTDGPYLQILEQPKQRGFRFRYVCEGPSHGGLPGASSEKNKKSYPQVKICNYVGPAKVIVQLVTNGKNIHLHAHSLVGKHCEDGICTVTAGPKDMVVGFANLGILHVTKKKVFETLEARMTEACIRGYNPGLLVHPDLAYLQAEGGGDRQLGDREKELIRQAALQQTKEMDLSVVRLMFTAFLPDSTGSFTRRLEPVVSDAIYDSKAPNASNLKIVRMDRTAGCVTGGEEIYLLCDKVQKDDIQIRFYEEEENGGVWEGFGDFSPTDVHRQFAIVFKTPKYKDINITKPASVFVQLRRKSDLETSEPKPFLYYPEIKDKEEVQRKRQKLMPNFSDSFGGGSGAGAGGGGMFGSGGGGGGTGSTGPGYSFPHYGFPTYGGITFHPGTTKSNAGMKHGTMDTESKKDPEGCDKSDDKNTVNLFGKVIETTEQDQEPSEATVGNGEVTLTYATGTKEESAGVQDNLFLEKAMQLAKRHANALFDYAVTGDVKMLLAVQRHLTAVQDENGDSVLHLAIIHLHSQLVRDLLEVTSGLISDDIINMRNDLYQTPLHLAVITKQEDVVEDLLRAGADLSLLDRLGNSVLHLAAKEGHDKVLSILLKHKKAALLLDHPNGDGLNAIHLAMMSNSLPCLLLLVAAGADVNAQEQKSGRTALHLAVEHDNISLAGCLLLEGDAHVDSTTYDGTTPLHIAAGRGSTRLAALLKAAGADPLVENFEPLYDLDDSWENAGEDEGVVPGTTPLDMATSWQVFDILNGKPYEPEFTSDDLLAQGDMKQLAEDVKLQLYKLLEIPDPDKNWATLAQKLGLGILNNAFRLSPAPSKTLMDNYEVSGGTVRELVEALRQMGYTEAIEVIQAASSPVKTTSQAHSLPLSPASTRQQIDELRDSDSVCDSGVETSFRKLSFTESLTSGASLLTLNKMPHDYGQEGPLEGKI
Sequence of Nuclear factor NF-kappa-B complex (Homo sapiens) (Q00653 whole entry, looked up): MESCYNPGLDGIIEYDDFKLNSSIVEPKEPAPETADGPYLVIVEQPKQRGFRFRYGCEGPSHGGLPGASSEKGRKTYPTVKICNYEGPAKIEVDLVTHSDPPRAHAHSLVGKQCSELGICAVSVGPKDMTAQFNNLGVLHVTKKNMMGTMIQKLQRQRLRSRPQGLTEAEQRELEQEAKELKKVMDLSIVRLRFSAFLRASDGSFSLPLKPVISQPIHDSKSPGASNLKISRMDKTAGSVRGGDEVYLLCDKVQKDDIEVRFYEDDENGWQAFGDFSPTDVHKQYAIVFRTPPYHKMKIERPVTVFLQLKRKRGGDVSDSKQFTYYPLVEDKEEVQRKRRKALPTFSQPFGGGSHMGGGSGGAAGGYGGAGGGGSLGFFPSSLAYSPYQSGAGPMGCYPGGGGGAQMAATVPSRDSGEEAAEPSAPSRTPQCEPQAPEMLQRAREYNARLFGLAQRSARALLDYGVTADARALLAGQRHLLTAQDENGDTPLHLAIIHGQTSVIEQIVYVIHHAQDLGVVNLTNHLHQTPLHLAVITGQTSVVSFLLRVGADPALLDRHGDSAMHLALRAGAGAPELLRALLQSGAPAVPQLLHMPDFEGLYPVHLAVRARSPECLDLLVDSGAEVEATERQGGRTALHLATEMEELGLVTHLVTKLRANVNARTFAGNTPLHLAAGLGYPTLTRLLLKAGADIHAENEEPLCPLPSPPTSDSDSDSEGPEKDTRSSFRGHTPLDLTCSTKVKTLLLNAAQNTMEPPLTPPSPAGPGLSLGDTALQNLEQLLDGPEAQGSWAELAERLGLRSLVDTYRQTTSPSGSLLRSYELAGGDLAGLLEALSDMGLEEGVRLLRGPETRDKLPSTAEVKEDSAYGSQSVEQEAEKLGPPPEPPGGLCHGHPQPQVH
Sequence of Nuclear factor NF-kappa-B complex (Homo sapiens) (Q04206 whole entry, looked up): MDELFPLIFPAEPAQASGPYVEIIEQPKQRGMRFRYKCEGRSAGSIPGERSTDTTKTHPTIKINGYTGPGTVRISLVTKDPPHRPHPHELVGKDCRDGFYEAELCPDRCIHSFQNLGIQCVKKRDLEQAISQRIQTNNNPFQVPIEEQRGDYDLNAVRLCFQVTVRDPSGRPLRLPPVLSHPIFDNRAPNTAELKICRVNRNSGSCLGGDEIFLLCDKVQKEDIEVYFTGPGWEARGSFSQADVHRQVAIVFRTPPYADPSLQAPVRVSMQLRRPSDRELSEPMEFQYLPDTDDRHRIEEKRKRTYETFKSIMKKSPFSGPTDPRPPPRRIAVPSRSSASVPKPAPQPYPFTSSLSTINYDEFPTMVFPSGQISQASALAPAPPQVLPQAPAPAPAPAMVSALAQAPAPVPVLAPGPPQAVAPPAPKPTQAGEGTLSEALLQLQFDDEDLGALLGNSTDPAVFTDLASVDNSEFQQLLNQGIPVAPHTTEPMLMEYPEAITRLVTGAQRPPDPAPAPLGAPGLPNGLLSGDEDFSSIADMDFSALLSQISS
Data set [6] has as its system Human immunodeficiency virus. Briefly: Inhibition of HIV replication by recombinant virus assay. The class given is functional, organism-based. Conditions: Human immunodeficiency virus 1.

The inhibition is the change of the read-out against control, counted positive when it falls. Higher therefore signals a strong effect. As a reminder, the CC50 is the concentration that lowers cell viability or growth by half. A word on the IC50: it is the midpoint of a concentration-inhibition curve. `OC1(Cc2ccc(Cl)cc2Cl)c2ccccc2C2=NCCN21` (centres undefined): in data set [1], the “Ratio CC50/IC50” value was 6.3. The inhibition in data set [2] was 86.6%; in data set [5], below 0%. In addition, half-maximal cytotoxicity in data set [3] (CC50) was put at 87.5 µM. The result in data set [4] was inactive. Moreover, the IC50 in data set [6] is 13.8 µM.
Take `O=c1c2ccccc2c(Cc2ccc(Cl)cc2)nn1-c1ccc([N+](=O)[O-])cc1`: the “Ratio CC50/IC50” value in data set [1] came out at 1.1. Moreover, the inhibition in data set [2] was found to be 29.6%; in data set [5] it was 54.8%. In data set [3], this compound registered a half-maximal cytotoxic concentration (CC50) of 96.3 µM. Besides, in data set [4], the result was inactive. Further, the concentration for half-maximal inhibition (IC50) in data set [6] amounted to 89.5 µM.
As for `OC1(Cc2ccc3ccccc3c2)c2ccccc2C2=NCCCN21` (centres undefined), the “Ratio CC50/IC50” value in data set [1] stood at 1.3. Also, the inhibition in data set [2] was 51.2%; in data set [5] it was 100%. The CC50 in data set [3] is 81 µM. In addition, in data set [4], the outcome was inactive. In addition, the half-inhibitory concentration (IC50) in data set [6] is 60.8 µM.
In the case of `Cn1nc(Cc2ccc3c(c2)OCO3)c2ccccc2c1=O`, the “Ratio CC50/IC50” value in data set [1] amounted to 4.8. In addition, the inhibition in data set [2] was determined as 25.5%; in data set [5] it was 97.2%. In data set [3], this compound registered a CC50 of 131 µM. Besides, the result in data set [4] was inactive. Moreover, the IC50 in data set [6] worked out at 27.4 µM.
